# Results reported in patent publication US20090175995A1, “CONTROL OF FLAVOR CHARACTERISTICS OF AND INDICATOR OF FRESHNESS IN FRUIT JUICE” (TROPICANA PRODUCTS, INC., priority 2007, published 2009).
# Read-outs that look alike come from different tables or passages of the source.
# Assays:
# [1] = system: Astringency Taste; experiment: Astringency taste threshold, sensory; format: in vivo, human
# Source text: The inventors have discovered that, as with bitterness, a plurality of compounds present in orange juice below the astringency threshold contributes to the astringent mouth feel of the juice.
# (§1) To make these evaluations, eleven assessors (four women and seven men, age 23-39 years), who participated for at least two years in weekly training sessions, determined taste recognition threshold concentrations in bottled water (pH 5.1) by means of a three-alternative forced-choice method with ascending concentrations of the stimulus following the procedure reported previously in Stark, T.; Barenther, S.; Hofmann, T. (2005) J. Agric. Food Chem. 53:5407-5418.
# [2] = system: Bitter Taste; experiment: Bitter taste recognition threshold, trained sensory panel; format: in vivo, human
# Description: To study the influence of the chirality of C(17) on the sensory activity of these limonoids, bitter threshold concentrations were determined for limonin and C17-epilimonin.
# as §1
# [3] = Incubation of limonin in aqueous solution, formation of isolimonin; format: physicochemical; conditions: pH of 3
# [4] = Non-enzymatic release of limonin from limonin-17-β-D-glucopyranoside in aqueous solution on storage (HPLC-MS/MS); format: physicochemical; conditions: for limonin released from the glucopyranoside: up to 14 weeks in the dark; for limonin released from its precursor (yield): 14 weeks in the dark
# Description: To investigate the putative non-enzymatic release of limonin from limonin-17-β-D-glucopyranoside during storage of orange juice, aqueous solutions of the glucopyranoside adjusted to the pH value of a freshly squeezed orange juice (pH 3.5) or to the range of pH values found for orange juice concentrates (pH 2.0 and 3.0) were held at 20° C. for up to 14 weeks in the dark. At regular time intervals, aliquots were withdrawn from the model solutions and analyzed for the amount of limonin liberated from the glucopyranoside by means of HPLC-MS/MS operating in the MRM mode. […] For example, 0.85% mol of limonin was released from the glucopyranoside when maintained at pH 2.0, whereas at pH 3.5 only 0.25% of the bitter compound was generated.
# In order to investigate the influence of the temperature on limonin generation, aqueous solutions of the glucopyranoside adjusted to pH 3.0 were maintained at 4, 20, and 30° C. for up to 14 weeks in the dark. At regular time intervals, the amounts of limonin were determined by means of HPLC-MS/MS operating in the MRM mode. […] For example, limonin was released from its precursor in a yield of nearly 4.0% when incubated at 30° C., whereas only 0.2% of the bitter compound was detectable after storing the precursor solution at 4° C. for 14 weeks.
# In particular, aqueous solutions of limonin-17-β-D-glucopyranoside (0.35 mg/L) adjusted to pH value of 2.0, 3.0, and 3.5, respectively, by adding trace amounts of hydrochloric acid (1 mol/L) were maintained at different temperatures (4, 20, 30° C.) for up to 14 weeks in closed vials in the dark. At regular time intervals, samples (5 μL) were withdrawn with a syringe and were analyzed for the generation of limonin by means of LC-MS/MS on a Synergi Fusion, 150×2 mm i.d., 4 μm column (Phenomenex). To achieve this, chromatography was performed with a flow rate of 250 μL/min starting with a mixture (80/20, v/v) of 0.1% aqueous formic acid and acetonitrile, increasing the acetonitrile content to 40% within 10 min, then to 80% within 5 min, held for 5 min, and, finally, to 100% within 5 min. Using negative electrospray ionization, limonin was analyzed in the multiple reaction monitoring (MRM) mode using the mass transition m/z 469→229. Quantitative analysis was performed by comparing the peak areas obtained for the mass trace with those of defined standard solutions of limonin in methanol.
# [5] = Homo sapiens; read-out: Astringency Taste Threshold
# [6] = Homo sapiens; read-out: Bitter Taste Threshold
Compound,Astringency Taste Threshold ([1]; in vivo) [µmol/L],Bitter Taste Threshold ([2]; in vivo) [µmol/L],"minimal effective concentration [1, 5] [µM]","minimal effective concentration [2, 6] [µM]",other results
"5,6,7,3′,4′-pentamethoxyflavoneglucoside",21,61,–,–,–
"5,6,7,8,3′,4′-hexamethoxyflavoneglucoside",20,78,–,–,–
"COc1ccc(-c2oc3cc(OC)c(OC)c(OC)c3c(=O)c2OC)cc1OC [3,5,6,7,3′,4′-hexamethoxyflavone]",–,–,9,19,–
"COc1ccc(-c2oc3c(OC)c(OC)c(OC)c(OC)c3c(=O)c2OC)cc1OC [3,5,6,7,8,3′,4′-heptamethoxyflavone]",–,–,4 to 5,24 to 31,–
"COc1ccc(-c2oc3c(OC)c(OC)cc(OC)c3c(=O)c2OC)cc1OC [3,5,7,8,3′,4′-hexamethoxyflavone]",–,–,125,> 250,–
"COc1cc(-c2cc(=O)c3c(OC)c(OC)c(OC)c(OC)c3o2)ccc1O [4′-hydroxy-3′,5,6,7,8-pentamethoxyflavone]",–,–,6,25,–
"COc1ccc(-c2oc3cc(OC)c(OC)c(OC)c3c(=O)c2O[C@@H]2O[C@H](CO)[C@@H](O)[C@H](O)[C@H]2O)cc1OC [5,6,7,3′,4′-pentamethoxy-flavone-3-O-β-D-glucopyranoside]",21,61,–,–,–
"COc1ccc(-c2cc(=O)c3c(OC)c(OC)c(OC)cc3o2)cc1OC [5,6,7,3′,4′-pentamethoxyflavone]",–,–,24,56,–
"COc1ccc(-c2cc(=O)c3c(OC)c(OC)c(OC)cc3o2)cc1 [5,6,7,4′-tetramethoxyflavone]",–,–,–,–,"minimal effective concentration ([1]; Homo sapiens, read-out: Astringency Taste Threshold): 31 µM"
"COc1ccc(-c2oc3c(OC)c(OC)c(OC)c(OC)c3c(=O)c2O[C@@H]2O[C@H](CO)[C@@H](O)[C@H](O)[C@H]2O)cc1OC [5,6,7,8,3′,4′-Hexamethoxyflavone-3-O-β-D-glucopyranoside]",20,78,–,–,–
"COc1ccc(-c2cc(=O)c3c(OC)c(OC)c(OC)c(OC)c3o2)cc1OC [5,6,7,8,3′,4′-hexamethoxyflavone]",–,–,51,103,–
"COc1ccc(-c2cc(=O)c3c(OC)c(OC)c(OC)c(OC)c3o2)cc1 [5,6,7,8,4′-pentamethoxyflavone]",–,–,19,93,–
"COc1ccc(-c2cc(=O)c3c(OC)cc(OC)c(OC)c3o2)cc1OC [5,7,8,3′,4′-pentamethoxyflavone]",–,–,13,32,–
"COc1ccc(-c2cc(=O)c3c(OC)cc(OC)c(OC)c3o2)cc1 [5,7,8,4′-tetramethoxyflavone]",–,–,44,> 120,–
"COc1ccc2c(=O)cc(-c3ccc(OC)c(OC)c3)oc2c1 [7,3′,4′-trimethoxyflavone]",–,–,15,> 400,–
"COc1ccc(-c2cc(=O)c3ccc(OC)c(OC)c3o2)cc1OC [7,8,3′,4′-tetramethoxyflavone]",–,–,44,> 400,–
CC1(C)OC(=O)C[C@H](O)[C@]2(C)[C@H]3CC[C@@]4(C)[C@H](c5ccoc5)OC(=O)[C@H]5O[C@]54[C@]3(C)C(=O)C[C@@H]12 [Deacetylnomilin],13.2,>106,–,–,–
"CC1(C)O[C@H]2CC(=O)OC[C@]23[C@H]2CC[C@@]4(C)[C@H](c5ccoc5)OC(=O)[C@H]5O[C@]54[C@]2(C)C(=O)C[C@@H]13 [Limonin, reference compound]",–,–,4,4,"formation of isolimonin on incubation (direct epimerization) [3]: does not produce significant quantity of isolimonin; bitter threshold concentration ([2]; bottled water pH 5.1, three-alternative forced-choice, eleven assessors): 4.0 µmol/L; times more bitter than caffeine ([2]; relative to caffeine): ~200 times; times more bitter than catechin ([2]; relative to catechin): 150 times"
CC1(C)O[C@H]2CC(=O)OC[C@]23[C@H]2CC[C@@](C)([C@@H](O[C@@H]4O[C@H](CO)[C@@H](O)[C@H](O)[C@H]4O)c4ccoc4)[C@@]4(O[C@@H]4C(=O)O)[C@]2(C)C(=O)C[C@@H]13 [Limonin-17-β-D-glucopyranoside],17,106,–,–,"limonin released from the glucopyranoside ([4]; pH 2.0, 20° C.): 0.85 % mol; limonin released from its precursor (yield) ([4]; pH 3.0, 4° C.): 0.2%; limonin released from its precursor (yield) ([4]; pH 3.0, 30° C.): ~4.0%; limonin released from the glucopyranoside ([4]; pH 3.5, 20° C.): 0.25%"
CC(=O)O[C@H]1CC(=O)OC(C)(C)[C@@H]2CC(=O)[C@]3(C)[C@H](CC[C@@]4(C)[C@H](c5ccoc5)OC(=O)[C@H]5O[C@]543)[C@@]12C [Nomilin],–,–,–,–,"minimal effective concentration ([2]; Homo sapiens, read-out: Bitter Taste Threshold): 13 µM; times more bitter than caffeine ([2]; relative to caffeine): ~150 times; times more bitter than catechin ([2]; relative to catechin): 45 times"
C17-epilimonin [Isolimonin],–,–,–,–,"Astringency Taste Threshold [1]: 10 mg/L; bitter threshold concentration ([2]; water; bottled water pH 5.1, three-alternative forced-choice, eleven assessors): 10.0 µg/L"
Deacetylnomilinic acid-17-β-D-glucopyranoside,27,68,–,–,–
Epiisoobacunoic acid 17-β-D-glucopyranoside,16,42,–,–,–
Nomilin acid β-glpc,–,>800,–,–,–
Nomilin β-glpc,–,>700,–,–,–
Obacunon β-glpc,–,49,–,–,–
